Several values for one entry are separate records, joined by “and”; a condition that tells them apart may be missing. Equal values may be shown once. Inconclusive results and toxic doses are left out.
Test system: BDF1 mice, P388/ADR leukemia ip, median survival T/C
Experiment: NCI In Vivo Anticancer Drug Screen. Data for tumor model P388 Leukemia resistant to Adriamycin; NSC 123127, Developed at Scr 06 and 41 (intraperitoneal) in B6D2F1 (BDF1) mice
Conditions: endpoint: median survival time, higher = longer survival
Description: The antitumor activity of compounds was measured in mice bearing transplantable tumors. Survival or tumor size were measured and the results are expressed as the measurement made in the treated group (T) divided by the measurement made in the vehicle treated control group (C). The tumor model used in this assay is P388 Leukemia resistant to Adriamycin; NSC 123127, Developed at Scr 06 and 41 (intraperitoneal) in B6D2F1 (BDF1) mice

[1] = dose: 3.0 mg/kg/injection, schedule: Q04DX003 (ip), vehicle: water
[2] = dose: 13.33 mg/kg/injection, schedule: Q04DX003 (ip), vehicle: saline

## COC1=C(N)C(=O)c2nc(-c3nc(C(=O)O)c(C)c(-c4ccc(OC)c(OC)c4O)c3N)ccc2C1=O
dose: 144.0 micrograms/kg/injection, schedule: Q04DX003 (ip), vehicle: alkali diluted with saline
  T/C: 120 % of control
dose: 240.0 micrograms/kg/injection, schedule: Q04DX003 (ip), vehicle: alkali diluted with saline
  T/C: 120 % of control
dose: 400.0 micrograms/kg/injection, schedule: Q04DX003 (ip), vehicle: alkali diluted with saline
  T/C: 122 % of control
dose: 667.0 micrograms/kg/injection, schedule: Q04DX003 (ip), vehicle: alkali diluted with saline
  T/C: 121 % of control

## COc1cccc2c1C(=O)c1c(O)c3c(c(O)c1C2=O)C[C@@](O)(C(=O)CO)C[C@@H]3OC1CC(N)C(O)C(C)O1 (stereo partly specified)
dose: 0.65 mg/kg/injection, schedule: Q01DX009 (ip), vehicle: saline
  T/C: 107 % of control
dose: 1.08 mg/kg/injection, schedule: Q01DX009 (ip), vehicle: saline
  T/C: 109 % of control
dose: 1.3 mg/kg/injection, schedule: Q04DX003 (ip), vehicle: saline
  T/C: 112 % of control
dose: 1.3 mg/kg/injection, schedule: Q04DX003 (ip), vehicle: water
  T/C: 102 % of control and 115 % of control
dose: 1.5 mg/kg/injection, schedule: Q04DX003 (ip), vehicle: water
  T/C: 100 % of control
dose: 1.73 mg/kg/injection, schedule: Q04DX003 (ip), vehicle: water
  T/C: 116 % of control
dose: 1.8 mg/kg/injection, schedule: Q01DX009 (ip), vehicle: saline
  T/C: 110 % of control
dose: 2.16 mg/kg/injection, schedule: Q04DX003 (ip), vehicle: saline
  T/C: 109 % of control
dose: 2.16 mg/kg/injection, schedule: Q04DX003 (ip), vehicle: water
  T/C: 99 % of control and 120 % of control and 102 % of control
dose: 2.88 mg/kg/injection, schedule: Q04DX003 (ip), vehicle: water
  T/C: 124 % of control
dose: 3.0 mg/kg/injection, schedule: Q01DX009 (ip), vehicle: saline
  T/C: 96 % of control
[1]
  T/C: 100 % of control
dose: 3.6 mg/kg/injection, schedule: Q04DX003 (ip), vehicle: saline
  T/C: 120 % of control
dose: 3.6 mg/kg/injection, schedule: Q04DX003 (ip), vehicle: water
  T/C: 115 % of control and 122 % of control and 100 % of control
dose: 4.8 mg/kg/injection, schedule: Q04DX003 (ip), vehicle: water
  T/C: 103 % of control
dose: 6.0 mg/kg/injection, schedule: Q04DX003 (ip), vehicle: water
  T/C: 99 % of control [middle of 4 runs]
dose: 10.0 mg/kg/injection, schedule: Q04DX003 (ip), vehicle: water
  T/C: 98 % of control
dose: 66.7 mg/kg/injection, schedule: Q04DX003 (ip), vehicle: water
  T/C: 96 % of control

## O=C1c2ccccc2C(=O)c2c(NCCNCCO)ccc(NCCNCCO)c21
dose: 13.0 mg/kg/injection, schedule: Q04DX003 (ip), vehicle: saline + alcohol
  T/C: 105 % of control
dose: 21.6 mg/kg/injection, schedule: Q04DX003 (ip), vehicle: saline + alcohol
  T/C: 104 % of control
dose: 36.0 mg/kg/injection, schedule: Q04DX003 (ip), vehicle: saline + alcohol
  T/C: 98 % of control

## CO[C@H]1Nc2c(ccc(C)c2O)C(=O)N2C=C(/C=C/C(N)=O)C[C@@H]12
dose: 216.0 micrograms/kg/injection, schedule: Q04DX003 (ip), vehicle: saline + alcohol
  T/C: 154 % of control
dose: 252.0 micrograms/kg/injection, schedule: Q04DX003 (ip), vehicle: saline + alcohol
  T/C: 194 % of control
dose: 360.0 micrograms/kg/injection, schedule: Q04DX003 (ip), vehicle: saline + alcohol
  T/C: 176 % of control
dose: 420.0 micrograms/kg/injection, schedule: Q04DX003 (ip), vehicle: saline + alcohol
  T/C: 176 % of control
dose: 600.0 micrograms/kg/injection, schedule: Q04DX003 (ip), vehicle: saline + alcohol
  T/C: 90 % of control

## CCN(CC)CCNc1ccc(CO)c2sc3ccccc3c(=O)c12
dose: 17.3 mg/kg/injection, schedule: Q01DX009 (ip), vehicle: water
  T/C: 93 % of control
dose: 25.2 mg/kg/injection, schedule: Q01DX009 (ip), vehicle: water
  T/C: 108 % of control
dose: 28.8 mg/kg/injection, schedule: Q01DX009 (ip), vehicle: water
  T/C: 100 % of control
dose: 42.0 mg/kg/injection, schedule: Q01DX009 (ip), vehicle: water
  T/C: 117 % of control
dose: 48.0 mg/kg/injection, schedule: Q01DX009 (ip), vehicle: water
  T/C: 104 % of control
dose: 70.0 mg/kg/injection, schedule: Q01DX009 (ip), vehicle: water
  T/C: 104 % of control
dose: 117.0 mg/kg/injection, schedule: Q01DX009 (ip), vehicle: water
  T/C: 88 % of control

## Cc1c(N)nc([C@H](CC(N)=O)NC[C@H](N)C(N)=O)nc1C(=O)N[C@H](C(=O)N[C@H](C)[C@@H](O)[C@H](C)C(=O)N[C@H](C(=O)NCCc1nc(-c2nc(C(=O)NCCC[S+](C)C)cs2)cs1)[C@@H](C)O)C(OC1OC(CO)C(O)C(O)C1OC1OC(CO)C(O)C(OC(N)=O)C1O)c1cnc[nH]1 (stereo partly specified)
dose: 2.88 mg/kg/injection, schedule: Q01DX009 (ip), vehicle: saline
  T/C: 105 % of control
dose: 4.8 mg/kg/injection, schedule: Q01DX009 (ip), vehicle: saline
  T/C: 107 % of control
dose: 6.5 mg/kg/injection, schedule: Q01DX009 (ip), vehicle: saline
  T/C: 110 % of control
dose: 8.0 mg/kg/injection, schedule: Q01DX009 (ip), vehicle: saline
  T/C: 105 % of control
dose: 10.8 mg/kg/injection, schedule: Q01DX009 (ip), vehicle: saline
  T/C: 93 % of control
dose: 13.33 mg/kg/injection, schedule: Q01DX009 (ip), vehicle: saline
  T/C: 103 % of control
[2]
  T/C: 103 % of control
dose: 18.0 mg/kg/injection, schedule: Q01DX009 (ip), vehicle: saline
  T/C: 95 % of control
dose: 22.22 mg/kg/injection, schedule: Q04DX003 (ip), vehicle: saline
  T/C: 110 % of control
dose: 30.0 mg/kg/injection, schedule: Q01DX009 (ip), vehicle: saline
  T/C: 90 % of control
dose: 37.0 mg/kg/injection, schedule: Q04DX003 (ip), vehicle: saline
  T/C: 98 % of control

## CC(=O)C1(O)Cc2c(O)c3c(c(O)c2C(OC2CC(N)C(O)C(C)O2)C1)C(=O)c1ccccc1C3=O (stereo unspecified)
dose: 324.0 micrograms/kg/injection, schedule: Q04DX003 (ip), vehicle: water
  T/C: 119 % of control
dose: 540.0 micrograms/kg/injection, schedule: Q04DX003 (ip), vehicle: water
  T/C: 122 % of control
dose: 900.0 micrograms/kg/injection, schedule: Q04DX003 (ip), vehicle: water
  T/C: 122 % of control
dose: 1500.0 micrograms/kg/injection, schedule: Q04DX003 (ip), vehicle: water
  T/C: 98 % of control

## CC[C@@]1(O)C[C@H](OC2CC(N(C)C)C(OC3CC(O)C(OC4CC(O)C(O)C(C)O4)C(C)O3)C(C)O2)c2c(cc3c(c2O)C(=O)c2c(O)ccc(O)c2C3=O)[C@H]1C(=O)OC (stereo partly specified)
dose: 1.08 mg/kg/injection, schedule: Q04DX003 (ip), vehicle: water
  T/C: 106 % of control
dose: 1.8 mg/kg/injection, schedule: Q04DX003 (ip), vehicle: water
  T/C: 109 % of control
[1]
  T/C: 120 % of control

## COc1cc([C@@H]2c3cc4c(cc3[C@@H](OC3OC5CO[C@@H](c6cccs6)OC5C(O)C3O)[C@H]3COC(=O)[C@H]23)OCO4)cc(OC)c1O (stereo partly specified)
[2]
  T/C: 123 % of control

## CC[C@](O)(C(=O)O)c1cc2n(c(=O)c1CO)Cc1cc3ccccc3nc1-2
dose: 18.0 mg/kg/injection, schedule: Q04DX003 (ip), vehicle: saline
  T/C: 183 % of control
dose: 30.0 mg/kg/injection, schedule: Q04DX003 (ip), vehicle: saline
  T/C: 209 % of control
dose: 50.0 mg/kg/injection, schedule: Q04DX003 (ip), vehicle: saline
  T/C: 206 % of control

## N[C@@H](Cc1ccc(N(CCCl)CCCl)cc1)C(=O)O
dose: 3.6 mg/kg/injection, schedule: Q01DX001 (ip), vehicle: saline
  T/C: 313 % of control
dose: 6.0 mg/kg/injection, schedule: Q01DX001 (ip), vehicle: saline
  T/C: 507 % of control
dose: 10.0 mg/kg/injection, schedule: Q01DX001 (ip), vehicle: saline
  T/C: 507 % of control
dose: 16.7 mg/kg/injection, schedule: Q01DX001 (ip), vehicle: saline
  T/C: 406 % of control

## CC[C@H]1CN2CCc3cc(OC)c(OC)cc3[C@@H]2C[C@@H]1C[C@@H]1c2cc(OC)c(OC)cc2CCN1CCN(CCCl)CCCl
dose: 4.3 mg/kg/injection, schedule: Q04DX003 (ip), vehicle: saline with Tween-80
  T/C: 119 % of control
dose: 7.2 mg/kg/injection, schedule: Q04DX003 (ip), vehicle: saline with Tween-80
  T/C: 119 % of control

## COc1cc(O)c2c(c1)C(=O)c1cc3c(c(O)c1C2=O)C(OC1OC(C)C(O)C(O)C1OC)C(OC)C(C)(O)C3=O (stereo unspecified)
dose: 25.9 mg/kg/injection, schedule: Q01DX009 (ip), vehicle: Klucel (hydroxypropylcellulose) (HPC)
  T/C: 96 % of control
dose: 43.2 mg/kg/injection, schedule: Q01DX009 (ip), vehicle: Klucel (hydroxypropylcellulose) (HPC)
  T/C: 96 % of control
dose: 72.0 mg/kg/injection, schedule: Q01DX009 (ip), vehicle: Klucel (hydroxypropylcellulose) (HPC)
  T/C: 99 % of control
dose: 108.0 mg/kg/injection, schedule: Q04DX003 (ip), vehicle: Klucel (hydroxypropylcellulose) (HPC)
  T/C: 100 % of control
dose: 120.0 mg/kg/injection, schedule: Q01DX009 (ip), vehicle: Klucel (hydroxypropylcellulose) (HPC)
  T/C: 103 % of control
dose: 180.0 mg/kg/injection, schedule: Q04DX003 (ip), vehicle: Klucel (hydroxypropylcellulose) (HPC)
  T/C: 105 % of control

Source: PubChem BioAssay AID182 (DTP/NCI, 2004)
